Assay results reported in publication PMC6273369, “Synthesis, Biological Evaluation and Molecular Modelling of 2′-Hydroxychalcones as Acetylcholinesterase Inhibitors” (Molecules, 2016).
Where two headings read alike, the source gives them in different places.

How the values were obtained:
human AChE [1] = biological target: T1, human AChE (Homo sapiens, UniProt P22303); test: biochemical; conditions: for inhibition at 10 µM: read-out: % Inhibition at 10 µM; for IC50: mean ± SEM
T1 construct: purchased Sigma-Aldrich
T1 sequence (P22303 32-614): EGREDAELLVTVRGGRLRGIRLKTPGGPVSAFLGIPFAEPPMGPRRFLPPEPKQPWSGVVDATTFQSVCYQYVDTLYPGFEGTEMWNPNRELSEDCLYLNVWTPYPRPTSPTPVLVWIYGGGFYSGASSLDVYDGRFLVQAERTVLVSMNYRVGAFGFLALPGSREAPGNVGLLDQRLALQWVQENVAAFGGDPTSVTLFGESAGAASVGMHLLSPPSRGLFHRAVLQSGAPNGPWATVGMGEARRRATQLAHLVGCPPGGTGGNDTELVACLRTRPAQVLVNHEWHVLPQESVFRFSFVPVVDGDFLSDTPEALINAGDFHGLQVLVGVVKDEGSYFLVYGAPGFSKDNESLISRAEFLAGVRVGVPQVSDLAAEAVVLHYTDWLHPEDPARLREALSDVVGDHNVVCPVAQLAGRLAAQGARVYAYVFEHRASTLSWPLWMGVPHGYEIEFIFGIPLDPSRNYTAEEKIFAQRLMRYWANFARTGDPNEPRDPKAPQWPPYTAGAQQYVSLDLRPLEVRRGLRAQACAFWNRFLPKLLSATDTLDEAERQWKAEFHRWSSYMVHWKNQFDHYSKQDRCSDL
Experimental: AChE and BChE inhibition studies were performed in 96 well plates by the method of Ellman, et al.. […] The mixture was preincubated for 20 min at 37 °C before addition of 50 μL (0.120 mM) of the substrate, acetylthiocholine (ATC) iodide or butyrylthiocholine (BTC) iodide (depending on the enzyme). […] Each assay was performed in triplicate. […] The percentage of inhibition was calculated using the expression: (E–S)/E × 100 where E is the activity of the enzyme without test compound and S is the activity of the enzyme with test compound.
(§1) IC50 values were obtained from concentration-inhibition experiments by nonlinear regression analysis using PRISM® v5.0 (GraphPad Inc., San Diego, CA, USA).

equine BChE = biological target: T2, equine BChE (Equus caballus, UniProt P81908); test: Equine BChE inhibition, Ellman's method; format: biochemical; conditions: for Selectivity for AChE: IC50 (BChE)/IC50 (AChE); for IC50: equine BChE, mean ± SEM
T2 construct: purchased Sigma-Aldrich
T2 sequence (P81908 whole entry): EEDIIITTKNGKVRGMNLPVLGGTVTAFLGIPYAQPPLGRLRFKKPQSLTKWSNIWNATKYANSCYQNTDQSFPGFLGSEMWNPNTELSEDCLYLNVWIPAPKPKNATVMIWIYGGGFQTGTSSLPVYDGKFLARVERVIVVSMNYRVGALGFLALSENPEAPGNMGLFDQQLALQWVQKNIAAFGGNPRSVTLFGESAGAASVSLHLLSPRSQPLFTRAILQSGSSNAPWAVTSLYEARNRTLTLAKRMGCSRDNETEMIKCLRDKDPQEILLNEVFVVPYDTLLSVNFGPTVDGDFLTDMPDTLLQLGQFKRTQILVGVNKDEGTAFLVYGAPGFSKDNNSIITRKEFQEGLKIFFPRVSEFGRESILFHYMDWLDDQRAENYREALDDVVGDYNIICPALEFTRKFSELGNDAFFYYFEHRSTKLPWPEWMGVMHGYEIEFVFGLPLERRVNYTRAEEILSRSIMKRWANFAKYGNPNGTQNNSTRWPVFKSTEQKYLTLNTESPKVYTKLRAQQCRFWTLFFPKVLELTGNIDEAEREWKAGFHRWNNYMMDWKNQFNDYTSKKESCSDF
Experimental: The IC50 values of the four compounds that gave the greatest inhibition of AChE were also determined for equine BChE, which is readily available and is considered a good model for human BChE [23], as the equine form has 90% sequence identity compared to the human form. […].
AChE and BChE inhibition studies were performed in 96 well plates by the method of Ellman, et al.. 110 μL of sodium phosphate buffer (pH 8.0) was added to each well followed by 20 μL of test compound, 50 μL of 5,5′-dithiobis-(2-nitrobenzoic acid) (DTNB) (0.126 mM) and 20 μL of AChE or BChE (0.15 units/mL). The mixture was preincubated for 20 min at 37 °C before addition of 50 μL (0.120 mM) of the substrate, acetylthiocholine (ATC) iodide or butyrylthiocholine (BTC) iodide (depending on the enzyme). The hydrolysis of ATC or BTC was monitored using an Infinite® M200 PRO multimode reader (Tecan Group Ltd., Männedorf, Switzerland) by measuring the absorbance due to yellow 5-thio-2-nitrobenzoate anion at 412 nm every 30 s for 25 min. Each assay was performed in triplicate. […] The percentage of inhibition was calculated using the expression: (E–S)/E × 100 where E is the activity of the enzyme without test compound and S is the activity of the enzyme with test compound.
as §1

human AChE [2] = biological target: T1, human AChE; test: Kinetic characterisation of AChE inhibition (Lineweaver-Burk, nonlinear regression mixed-model); format: biochemical; conditions: substrate acetylthiocholine 0.1-1.0 mM, read-out: Apparent Ki, human AChE
Experimental: […]. The mode of inhibition was investigated using Lineweaver–Burk plots of 1/initial reaction rate (1/V) against 1/substrate concentration (1/[S]). Apparent inhibition constant (Ki and Ki′) values were determined using the nonlinear regression mixed-model inhibition method in PRISM® v5.0 (GraphPad Inc.).

[3] = human recombinant AChE, 10 µM, mean of triplicate, na = no activity observed at 10 µM

Compound | inhibition at 10 µM (human AChE [1]; [3]) [%] | IC50 (human AChE [1]; human recombinant AChE) [µM] | Selectivity for AChE (equine BChE) | IC50 (equine BChE) [µM] | Ki (human AChE [2]) [µM] | inhibition at 10 µM (human AChE [1]) [%]
CN(C)c1ccc(/C=C/C(=O)c2ccccc2O)cc1 [Compound 5, 2′-Hydroxy-4-(dimethylamino)chalcone] | 28 | 266 ± 48 | – | – | – | –
COc1cc(O)c(C(=O)/C=C/c2cc(Cl)cc(Cl)c2O)c(OC)c1 [Compound 14, 3,5-Dichloro-2,2′-dihydroxy-4′,6′-dimethoxychalcone] | 51 | 73 ± 22 | 1.1 | 81 ± 18 | 56 | –
O=C(/C=C/c1ccccc1)c1ccccc1O [Compound 1, 2′-Hydroxychalcone] | – | – | – | – | – | 11
COc1cc(O)c(C(=O)/C=C/c2ccccc2Br)c(OC)c1 [Compound 13, 2-Bromo-2′-hydroxy-4′,6′-dimethoxychalcone] | 23 | 85 ± 16 | – | 71 ± 14 | 113 | –
COc1ccc(/C=C/C(=O)c2ccccc2O)cc1 [Compound 6, 2′-Hydroxy-4-methoxychalcone] | – | – | – | – | – | 6
COc1cc(O)c(C(=O)/C=C/c2ccc(Br)cc2)c(OC)c1 [Compound 10, 4-Bromo-2′-hydroxy-4′,6′-dimethoxychalcone] | 30 | 41 ± 13 | 1.4 | 59 ± 12 | 31 | –
COc1cc(O)c(C(=O)/C=C/c2ccc(N(C)C)cc2)c(OC)c1 [Compound 11, 2′-Hydroxy-4′,6′-dimethoxy-4-(dimethylamino)chalcone] | 5 | – | – | – | – | –
COc1ccc(/C=C/C(=O)c2c(O)cc(OC)cc2OC)cc1 [Compound 12, 2′-Hydroxy-4,4′,6′-trimethoxychalcone] | 7 | – | – | – | – | –
O=C(/C=C/c1ccccc1Br)c1ccccc1O [Compound 7, 2-Bromo-2′-hydroxychalcone] | 38 | 55 ± 12 | 2.0 | 108 ± 18 | 40 | –
COc1cc(O)c(C(=O)/C=C/c2ccc(C)cc2)c(OC)c1 [Compound 9, 2′-Hydroxy-4′,6′-dimethoxy-4-methylchalcone] | 23 | 354 ± 33 | – | – | – | –
